Results published in patent US8658687B2, “Injectable formulations containing asenapine and method of treatment using same” (Merck Sharp & Dohme Corp., priority 2009, dated 2014).

Legend:
[1] = Plasma levels of asenapine after IM depot injection in rabbits; assay type: in vivo, New Zealand white rabbits; conditions: 1 mL IM injection, 20 wt % suspension, Form I mean particle size 20 micron, Form II 16 micron, rabbit
Experimental: Each of the formulations prepared in Example 2 were administered to a series of experimental animal subjects (New Zealand white rabbits) as a depot injection. A depot of 1 mL volume of the formulation selected was administered into the left limb of the subject. At time intervals following injection, blood samples were collected from the subject's ear artery in 0.03 mL of 0.2M EDTA, Samples were collected at 1, 3, and 6 hours post injection, then 1, 2, 3, and 6 days post injection, then on days 10, 13, 17, 20, 24 and 25. Once collected, blood samples were centrifuged for 2 min. at room temperature (125,000 N/kg). Plasma samples thus obtained were analyzed by LC/MS after adding an internal standard. The asenapine and internal standard were isolated from the sample by solid phase extraction. […]
In additional animal studies, and with Reference to FIG. 10, using the same procedures described above, suspensions comprising 20 wt % of asenapine hemipamoate of Form I (mean particle size of 20 micron) and Form II (mean particle size 16 micron) were prepared. […] Plasma levels of asenapine were determined using the above-described procedure. […]

[2] = Stability of particles suspended in pH 7 phosphate buffer on storage, crystal form followed by DSC; assay type: physicochemical; conditions: suspended in phosphate buffer pH 7, stored at 30° C. and 40° C.
Experimental: With reference to FIG. 2a, the conversion of Form I to Form II was monitored by periodically taking aliquots of the stored suspension, isolating the suspended solids by filtration and drying the isolated solids at room temperature. DSC analysis was performed on the isolated, dried solids using a 10 mg sample of the solids and a Mettler DSC 822e programmed to heat at a rate of 10° C./min, from 25° C. to 250° C. The results of this study are presented in, with the result shown in the upper traces of FIG. 2a.

[3] = Solubility in aqueous phosphate buffer at pH 7
[4] = In vitro dissolution in USP paddle stirring dissolution apparatus; conditions: for rate of dissolution, Form I compared with Form II (FIG. 8a): phosphate buffered saline 10 mM pH 7.0, 37° C., 100 RPM, similar particle size fractions
Experimental: To carry out these studies, particle, fractions of crystalline Form II of asenapine hemipamoate having d50, values of 3.5 microns, 7 microns, and 20 microns respectively, (see FIG. 7e) were obtained and placed into one of the dissolution vessels of the apparatus. Prior to charging a dissolution vessel with an aliquot of particles, each of the vessels was filled with 1 L of phosphate buffered saline (10 mM, adjusted to pH 7.0) and fitted with a probe that contained a mirror and optical arrangement in its tip defining a fixed sample path. Each probe was optically connected to a central light source and detector permitting real-time photometric monitoring of the concentration of asenapine in solution as dissolution proceeded during the investigation.
The particle fractions were prepared for use in the apparatus by dispersing the sample (20 mg) in 1 mL of an aqueous solution comprising 3 wt. % macrogol 3400, 0.118 wt. % of disodium hydrogen phosphate, 0.047 wt. % sodium dihydrogen phosphate and 0.76 wt. % sodium chloride. Each determination was carried out by adjusting the apparatus to the desired dissolution conditions (temperature, paddle speed, pH of dissolution media) and injecting 50 microliter of the selected crystalline Form II of asenapine hemipamoate dispersion (equivalent to 1 mg of crystalline Form II of asenapine hemipamoate) into a dissolution vessel filled with the desired dissolution medium. Asenapine hemipamoate concentration in the dissolution medium was monitored optically using the probe system described above during the course of the dissolution.
The above-described in vitro testing methodology was used to compare the dissolution of crystalline crystalline Form I of asenapine hemipamoate hemipamoate (as precipitated) and crystalline Form II of asenapine hemipamoate (as precipitated). Accordingly, 20 mg of a particle fraction of crystalline Form I of asenapine hemipamoate having a d50 value of 19 microns, a d90 value of 41 microns and a d10 value of 3 microns was dispersed into 2 mL of a polysorbate 80 solution. An aliquot of 100 microliter of the dispersion was introduced into dissolution medium contained in a paddle stirring apparatus as described above. For these tests the dissolution vessels of the apparatus were filled with 1 L of phosphate buffered saline (10 mM, adjusted to pH 7.0). The temperature of the dissolution medium was maintained at 37° C. and the apparatus paddle speed was set at 100 RPM.
For comparison, a 100 microliter sample of a dispersion comprising 100 mg of crystalline Form II of asenapine hemipamoate particle fraction having a d50 value of 16 microns, a d90 value of 50 microns, and a d10 value of 2 microns, dispersed in 1 mL of a polysorbate 80 solution, as described above was studied under the same conditions and dissolution medium used to study the sample containing crystalline Form I of asenapine hemipamoate.

[5] = Plasma concentration of asenapine after depot injection in patients with stable chronic schizophrenia; assay type: in vivo, human; conditions: 1.0 mL of 20 wt % suspension in deltoid muscle, d50 10 microns
Experimental: Formulations of the invention were studied in human patients diagnosed with stable chronic schizophrenia. Using the same procedure described above, a suspension was prepared comprising 20 wt % of crystalline Form II of asenapine hemipamoate. The Form II particle fraction employed to prepare the suspension yielded a d10 value of 3 microns, a d90 value of 27 microns and a d50 value of 10 microns. An injection of 1.0 mL volume of the suspension was administered in the deltoid muscle of the upper arm by inserting the needle in the thickest part of the deltoid muscle at a 90 degree angle to the skin, followed by aspiration for 5 to 10 seconds, followed by injection of the depot over a 10 second interval. The plasma concentration of asenapine provided by the depot was observed using the above-described procedure.

[6] = IM depot of suspended olanzapine pamoate particles; cited from earlier work
[7] = IM depot injection, mean particle diameter 6.63, 10.68, 17.16 or 29.96 microns, dogs; cited from earlier work

In the case of `CN1C[C@@H]2c3ccccc3Oc3ccc(Cl)cc3[C@H]2C1.CN1C[C@@H]2c3ccccc3Oc3ccc(Cl)cc3[C@H]2C1.O=C(O)c1cc2ccccc2c(Cc2c(O)c(C(=O)O)cc3ccccc23)c1O` [crystalline Form I of asenapine hemipamoate] [reference compound], the “initial plasma levels, Form I versus Form II (FIG. 10)” value [1] is reported as “burst release”, the “stability of crystalline form on storage of suspension (DSC of recovered solids)” value [2] is reported as “slowly converted to crystalline Form II of asenapine hemipamoate” and the “solubility of Form I relative to Form II” value [3] is reported as “approximately 4 times”. The “rate of dissolution, Form I compared with Form II (FIG. 8a)” value [4] was “significantly higher”.

In the case of `CN1C[C@@H]2c3ccccc3Oc3ccc(Cl)cc3[C@H]2C1.CN1C[C@@H]2c3ccccc3Oc3ccc(Cl)cc3[C@H]2C1.O=C(O)c1cc2ccccc2c(Cc2c(O)c(C(=O)O)cc3ccccc23)c1O` [crystalline Form II of asenapine hemipamoate], the “stability of crystalline form on storage of suspension (DSC of recovered solids)” value [2] is reported as “does not decompose or convert to any other crystalline form”, the “period of controlled release of asenapine (FIG. 11)” value [5] is reported as “about 4 weeks” and the “effect of temperature of dissolution medium on dissolution behavior (FIG. 7b)” value ([4]; 35° C. to 39° C.) is reported as “reasonably insensitive to variation in temperature”. The “effect of paddle speed on dissolution behavior (FIG. 7d)” value ([4]; 50 rpm to 150 rpm) was “reasonably insensitive to variation in the paddle speed”, the “effect of dissolution medium pH on rate of dissolution (FIG. 7c)” value ([4]; pH 6 to pH 8, d50 3.5 or 20 micron fractions) was “does not significantly vary the rate of dissolution” and the “rate of dissolution, Form I compared with Form II (FIG. 8a)” value [4] was “dissolve much slower”. The “effect of d50 value of particle fraction on rate of dissolution (FIG. 7a)” value ([4]; same conditions, d50 3.5, 7, 20 microns) was “greatly influenced by the d50 value”.

For `Cc1cc2c(s1)Nc1ccccc1N=C2N1CCN(C)CC1.O.O=C(O)c1cc2ccccc2c(Cc2c(O)c(C(=O)O)cc3ccccc23)c1O` [olanzapine pamoate], the “adverse events in trials” value [6] is given as “extreme sedation and reversible coma”.

For `CCC1(c2ccccc2)C(=O)NC(=O)NC1=O` [phenobarbital], the “plasma concentrations of phenobarbital versus mean particle diameter (FIG. 1)” value [7] is given as “tracked inversely with the mean particle diameter”.
